Laboratory results from ChEMBL document CHEMBL3856182, “How much successful are the medicinal chemists in modulation of SIRT1: A critical review” (Eur J Med Chem, 2016).
Converted amounts (≈) assume the structure as drawn. Values belong to the molecule of their own block, whether it stands above or below them.

Experiments:
Saccharomyces cerevisiae = assay: Growth inhibition of yeast
[1] = biological target: T1, NAD-dependent protein deacetylase sirtuin-1 (Homo sapiens, UniProt Q96EB6); assay: Inhibition of SIRT1 (unknown origin) using acetylated lysine as substrate by Fluor de Lys assay
T1 sequence (Q96EB6 whole entry): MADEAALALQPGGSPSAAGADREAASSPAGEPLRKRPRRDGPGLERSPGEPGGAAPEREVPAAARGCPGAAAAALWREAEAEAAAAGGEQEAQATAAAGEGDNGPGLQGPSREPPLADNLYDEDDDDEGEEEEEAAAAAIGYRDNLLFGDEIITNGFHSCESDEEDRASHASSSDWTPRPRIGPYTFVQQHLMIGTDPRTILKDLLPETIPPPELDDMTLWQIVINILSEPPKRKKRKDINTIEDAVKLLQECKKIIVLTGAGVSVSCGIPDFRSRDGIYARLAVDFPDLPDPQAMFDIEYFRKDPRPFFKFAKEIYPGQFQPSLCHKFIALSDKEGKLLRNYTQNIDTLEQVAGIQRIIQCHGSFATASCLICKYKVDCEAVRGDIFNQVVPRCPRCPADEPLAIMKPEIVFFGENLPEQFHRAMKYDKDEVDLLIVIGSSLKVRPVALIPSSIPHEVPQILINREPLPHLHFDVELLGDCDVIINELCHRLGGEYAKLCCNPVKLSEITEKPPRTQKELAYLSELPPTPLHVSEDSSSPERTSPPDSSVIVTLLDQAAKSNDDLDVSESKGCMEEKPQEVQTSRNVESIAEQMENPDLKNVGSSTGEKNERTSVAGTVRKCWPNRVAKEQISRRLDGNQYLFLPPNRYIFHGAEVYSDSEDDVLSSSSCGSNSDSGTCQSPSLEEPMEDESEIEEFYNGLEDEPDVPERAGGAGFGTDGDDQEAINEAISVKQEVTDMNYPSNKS

[2] = biological target: T1, NAD-dependent protein deacetylase sirtuin-1; assay: Inhibition of recombinant human GST-tagged SIRT1 overexpressed in Escherichia coli DH5alpha assessed as deacetylation activity using [3H]-MPSDKTIGG as substrate measured after overnight incubation by liquid scintillation counting method
[3] = biological target: T2, NAD-dependent protein deacetylase sirtuin-2 (Homo sapiens, UniProt Q8IXJ6); assay: Inhibition of recombinant human GST-tagged SIRT2 overexpressed in Escherichia coli DH5alpha assessed as deacetylation activity using [3H]-MPSDKTIGG as substrate measured after overnight incubation by liquid scintillation counting method
T2 sequence (Q8IXJ6 whole entry): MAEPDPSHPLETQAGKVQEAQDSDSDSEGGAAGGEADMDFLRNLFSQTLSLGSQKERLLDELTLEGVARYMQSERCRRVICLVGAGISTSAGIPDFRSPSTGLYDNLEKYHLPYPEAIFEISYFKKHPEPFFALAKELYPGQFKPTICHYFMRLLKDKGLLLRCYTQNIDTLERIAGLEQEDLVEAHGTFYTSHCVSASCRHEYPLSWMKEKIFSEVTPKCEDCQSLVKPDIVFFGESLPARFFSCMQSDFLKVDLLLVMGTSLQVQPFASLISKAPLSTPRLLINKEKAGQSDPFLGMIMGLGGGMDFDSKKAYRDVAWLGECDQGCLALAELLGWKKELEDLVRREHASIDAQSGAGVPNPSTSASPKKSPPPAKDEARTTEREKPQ

[4] = biological target: T1, NAD-dependent protein deacetylase sirtuin-1; assay: Inhibition of human SIRT1 using biotinylated peptide with an acetylated FLAG sequence as substrate measured after 3 hr in presence of NAD+ by TR-FRET assay
[5] = biological target: T2, NAD-dependent protein deacetylase sirtuin-2; assay: Inhibition of human SIRT2 using biotin labeled histone H4 peptide with an acetylated lysine 4 as substrate measured after 1 hr by luminescence analysis
[6] = biological target: T2, NAD-dependent protein deacetylase sirtuin-2; assay: Inhibition of full-length human N-terminal His6-tagged SIRT2 expressed in Escherichia coli BL21 (DE3) assessed as inhibition of deacetylase activity using ZMAL as substrate measured after 4 hrs by Fluor de Lys assay
[7] = Oral bioavailability in rat at 50 or 150 mg/kg/day administered through gavage for 14 consecutive days by HPLC analysis; format: ADME, organism-based; conditions: in vivo
[8] = Oral bioavailability in human at 50 uCi up to 12 hrs using 14C-labeled compound by scintillation counting method; format: ADME, organism-based; conditions: in vivo
[9] = Drug absorption in human at 50 uCi, po up to 12 hrs using 14C-labeled compound by scintillation counting method; format: ADME, organism-based; conditions: in vivo
[10] = biological target: T2, NAD-dependent protein deacetylase sirtuin-2; assay: Competitive inhibition of human SIRT2 assessed as deacetylation activity using fluorescent peptide substrate in presence of NAD+ by Lineweaver-Burk plot analysis
[11] = biological target: T2, NAD-dependent protein deacetylase sirtuin-2; assay: Noncompetitive inhibition of human SIRT2 assessed as deacetylation activity using fluorescent substrate in presence of NAD+ by Lineweaver-Burk plot analysis
[12] = biological target: T1, NAD-dependent protein deacetylase sirtuin-1; assay: Inhibition of recombinant human SIRT1 assessed as deacetylation activity using fluorescent substrate in presence of NAD+ by fluorescence analysis
[13] = biological target: T2, NAD-dependent protein deacetylase sirtuin-2; assay: Inhibition of recombinant human SIRT2 assessed as deacetylation activity using fluorescent substrate in presence of NAD+ by fluorescence analysis
[14] = biological target: NAD-dependent histone deacetylase SIR2 (Saccharomyces cerevisiae S288c, UniProt P06700); assay: Non-competitive inhibition of recombinant yeast glutathione-S-transferase-tagged SIRT2 using acetylated histone as substrate measured after 30 mins by fluorimetric analysis
[15] = Cytotoxicity against human kidney cancer cells; format: functional; conditions: Cancer cell lines
[16] = Cytotoxicity against human leukemia cells; format: functional; conditions: Leukemia cell
[17] = Cytotoxicity against human lung cancer cells; format: functional; conditions: Cancer cell lines
[18] = Cytotoxicity against human colon cancer cells; format: functional; conditions: Cancer cell lines
[19] = Cytotoxicity against human prostate cancer cells; format: functional; conditions: Cancer cell lines
[20] = Cytotoxicity against human breast cancer cells; format: functional; conditions: Cancer cell lines
[21] = biological target: T1, NAD-dependent protein deacetylase sirtuin-1; assay: Inhibition of recombinant SIRT1 (unknown origin) assessed as deacetylation activity using acetylated p53 as substrate measured after 2 hrs by Fluor de Lys assay
[22] = biological target: T1, NAD-dependent protein deacetylase sirtuin-1; assay: Activation of recombinant human SIRT1 assessed as increase in deacetylation of Fluor de Lys-SIRT1-specific substrate after 2 hrs by HTS assay
[23] = biological target: T2, NAD-dependent protein deacetylase sirtuin-2; assay: Inhibition of human N-terminal 6His-tagged SIRT2 assessed as inhibition of deacetylase activity using ZMAL as substrate measured after 4 hrs by Fluor de Lys assay
[24] = biological target: T1, NAD-dependent protein deacetylase sirtuin-1; assay: Inhibition of recombinant human SIRT1 assessed as inhibition of deacetylase activity using ZMAL as substrate measured after 4 hrs by Fluor de Lys assay
[25] = biological target: T3, NAD-dependent protein deacetylase sirtuin-1 (Homo sapiens) (UniProt Q96EB6); assay: Activation of recombinant human SIRT1 using TPE-GK(Ac)YDD as substrate at 50 uM by fluorescence assay relative to control
T3 sequence (whole entry): T1 sequence (Q96EB6 whole entry)

Chain of NAD-dependent histone deacetylase SIR2 (P06700 whole entry): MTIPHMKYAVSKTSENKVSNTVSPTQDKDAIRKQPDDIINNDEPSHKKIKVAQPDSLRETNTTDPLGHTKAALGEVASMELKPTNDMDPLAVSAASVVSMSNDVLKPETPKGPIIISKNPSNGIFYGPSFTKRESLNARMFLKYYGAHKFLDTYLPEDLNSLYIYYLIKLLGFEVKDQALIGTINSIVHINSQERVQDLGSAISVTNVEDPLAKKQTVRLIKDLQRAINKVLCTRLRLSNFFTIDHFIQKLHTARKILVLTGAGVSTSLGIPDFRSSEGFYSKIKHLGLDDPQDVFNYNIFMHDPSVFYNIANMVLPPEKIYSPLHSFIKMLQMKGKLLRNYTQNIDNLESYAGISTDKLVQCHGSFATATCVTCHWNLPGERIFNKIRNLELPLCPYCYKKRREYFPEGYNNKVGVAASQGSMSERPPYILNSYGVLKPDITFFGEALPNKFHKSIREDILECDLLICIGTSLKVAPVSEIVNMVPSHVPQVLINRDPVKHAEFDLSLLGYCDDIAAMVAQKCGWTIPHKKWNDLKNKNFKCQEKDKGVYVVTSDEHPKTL

- IC50 [1]: > 100 µM
SMILES: NC(=O)c1ccccc1Oc1ccccc1

- bioavailability [7]: 20%
- F [8]: 0.5%
- Fabs [9]: 70%
SMILES: Oc1ccc(/C=C/c2cc(O)cc(O)c2)cc1 [RESVERATROL]

- Ki [10]: 5.3 µM
- Ki [11]: 9.8 µM
- IC50 [12]: 34 µM
- IC50 [13]: 8.7 µM
SMILES: O=C(/C=C/c1ccc(O)c(O)c1)NC(Cc1c[nH]c2ccccc12)C(=O)O (stereo unspecified)

- EC50 [22]: < 1 µM
SMILES: Nc1c(S(=O)(=O)c2ccccc2)c2nc3ccccc3nc2n1-c1ccc(F)cc1

- IC50 [23]: < 20.3 µM
- IC50 [24]: 5.9 µM
SMILES: O=C1CC(=S)NC(=O)/C1=C/c1cc2ccccc2[nH]1

- EC50 [22]: < 1 µM
SMILES: CCc1ccccc1-n1c(N)c(C(=O)NCC2CCCO2)c2nc3ccccc3nc21 (stereo unspecified)

Further lines, the molecule ahead of its results:

SMILES: CN(C)CCCCC(=O)Nc1ccc(NC(=S)NC(=O)c2ccc(C(C)(C)C)cc2)cc1
- IC50 (Saccharomyces cerevisiae): 30 µM

SMILES: CC(C)=CCC/C(C)=C/C[C@@H]1C[C@]2(CC=C(C)C)C(=O)[C@@](CC=C(C)C)(C(=O)C(Cc3ccc(O)c(O)c3)=C2O)[C@@]1(C)CCC=C(C)C
- IC50 [2]: 9 µM
- IC50 [3]: 22 µM

SMILES: CC(C)=CCC[C@]1(C)[C@@H](CC=C(C)C)C[C@@]2(CC=C(C)C)C(=O)[C@]1(C(=O)C(C)C)C(=O)C(CC=C(C)C)=C2OCC(=O)O
- IC50 [2]: 7 µM
- IC50 [3]: 21 µM

SMILES: Cn1ncnc2c(=O)n(C)c(=O)nc1-2
- IC50 [4]: 0.87 µM
- IC50 [5]: 14.4 µM

SMILES: CC1=CCC(C(=O)/N=C2\CC=C(S(=O)(=O)O)c3cc(S(=O)(=O)O)cc(S(=O)(=O)O)c32)=C/C1=N/C(=O)C1=CC=C/C(=N\C(=O)/N=C2\C=CC=C(C(=O)/N=C3/CC(C(=O)/N=C4\CC=C(S(=O)(=O)O)c5cc(S(=O)(=O)O)cc(S(=O)(=O)O)c54)=CC=C3C)C2)C1
- IC50 [6]: 1.15 µM

SMILES: NC(=O)c1cccnc1 [NIACINAMIDE]
- IC50 [14]: < 50 µM

SMILES: COc1ccc2c3c(c4cc(OC)c(OC)cc4c2c1)CN1CCCC[C@@H]1C3
- GI50 [15]: 0.0002 to 0.1 µg/mL (≈ 0.00053 to 0.265 µM)
- GI50 [16]: 0.0002 to 0.1 µg/mL (≈ 0.00053 to 0.265 µM)
- GI50 [17]: 0.0002 to 0.1 µg/mL (≈ 0.00053 to 0.265 µM)
- GI50 [18]: 0.0002 to 0.1 µg/mL (≈ 0.00053 to 0.265 µM)
- GI50 [19]: 0.0002 to 0.1 µg/mL (≈ 0.00053 to 0.265 µM)
- GI50 [20]: 0.0002 to 0.1 µg/mL (≈ 0.00053 to 0.265 µM)

SMILES: Cc1ccc2[nH]c3c(c2c1)CCCC3C(=O)O (stereo unspecified)
- IC50 [21]: 3.1 µM

SMILES: CC(C)=CCC[C@](C)(O[C@@H]1O[C@H](CO[C@@H]2O[C@@H](CO)[C@H](O)[C@H]2O)[C@@H](O)[C@H](O)[C@H]1O)[C@H]1CC[C@]2(C)[C@@H]1[C@H](O)C[C@@H]1[C@@]3(C)CC[C@H](O[C@@H]4O[C@H](CO)[C@@H](O)[C@H](O)[C@H]4O[C@@H]4O[C@H](CO)[C@@H](O)[C@H](O)[C@H]4O)C(C)(C)[C@@H]3CC[C@]12C
- Activity [25]: 88%

SMILES: CCCCc1nc2c(=O)n(C)c(=O)nc-2n(C)n1
- IC50 [4]: 0.11 µM
- IC50 [5]: > 100 µM
